In BindingDB's records for doi:10.1007/s00044-005-0131-1 (Universite De Lille, 2005):
Values joined by “and” are separate entries in the source; they are usually repeats but may differ in a detail not shown here. Equal values may be shown once.

Biological target: Sigma non-opioid intracellular receptor 1 (Cavia porcellus, UniProt Q60492)
Assay: Binding Assay
Text: Binding assay using sigma receptors.

Sigma non-opioid intracellular receptor 1, sequence (Q60492 whole entry): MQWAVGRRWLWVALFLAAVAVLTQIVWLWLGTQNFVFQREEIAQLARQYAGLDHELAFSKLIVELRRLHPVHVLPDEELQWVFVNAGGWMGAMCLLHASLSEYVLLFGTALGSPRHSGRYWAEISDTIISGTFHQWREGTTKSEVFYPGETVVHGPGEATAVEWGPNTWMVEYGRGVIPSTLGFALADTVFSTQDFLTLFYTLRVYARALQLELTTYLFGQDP

Ki	SMILES
> 1000 nM	CCCc1ccc2c(c1)sc(=O)n2CCN1C[C@]2(C)CCC[C@]2(C)C1 [3-{2-[(3aR,6aS)-3a,6a-dimethyl-octahydrocyclopenta[c]pyrrol-2-yl]ethyl}-6-propyl-2,3-dihydro-1,3-benzothiazol-2-one, 13]
2.9 nM and 13 nM	C=C(CC)c1ccc2c(c1)sc(=O)n2CCCCN1CCCCC1 [6-(but-1-en-2-yl)-3-[4-(piperidin-1-yl)butyl]-2,3-dihydro-1,3-benzothiazol-2-one, 12]
